Reference: PMC10744269, “Frentizole, a Nontoxic Immunosuppressive Drug, and Its Analogs Display Antitumor Activity via Tubulin Inhibition” (International Journal of Molecular Sciences, 2023)
pIC50: −log10 of the molar value.

Assays:
[1] = system: Ras-related protein Rab-9A; parameters: method as in SuperPred [40]; conditions: Table S2, CHEMBL1293294; ref SuperPred [40]; cited from earlier work
[2] = system: U87 MG (human glioblastoma); experiment: MTT antiproliferative assay, U-87 MG; type: cell-based; conditions: 72 h after drug treatment, threshold 10 μM
Procedure: (§1) The cell proliferation inhibitory activity of frentizole and the synthesized analogs 2–10 against representative human cancer cell lines was assayed using the MTT method (Table 1). […] For those compounds inhibiting cell proliferation by more than 40% with respect to the untreated controls at the threshold concentration, the IC50 values were calculated by measuring the proliferation inhibition in a range of concentrations from 100 to 0.001 μM and adjusting the resulting curves to sigmoidal dose–response curves. The selected cell lines were HeLa (cervix epithelioid carcinoma cells), one of the most frequent kinds of cancer, with good sensitivity against antimitotic agents, and the glioblastoma cell lines U87MG and A172. To study the selectivity of the compounds toward cancer cells versus nontumor cells, the compounds were also evaluated against the nontumorigenic cell line HEK-293 (human embryonic kidney cells) and the murine macrophage cell line J774. Sulfonamide ABT-751, as a representative of the colchicine-site ligands, and the first-line drug for the treatment of glioblastoma multiforme temozolomide (TMZ) were used as reference compounds.
(§2) The cell lines were from ATTC (Manassas, VA, USA). HeLa (human cervix epithelioid carcinoma), U87 MG (human glioblastoma), A172 (human glioblastoma), and HEK-293 (human embryonic kidney) were grown in Dulbecco’s modified Eagle’s medium (DMEM, Gibco, Waltham, MA, USA), supplemented with 10% (v/v) heat-inactivated fetal bovine serum (HIFBS, Sigma-Aldrich, St. Louis, MO, USA), 2 mM L-glutamine, 100 μg/mL streptomycin, and 100 units/mL penicillin (Gibco, Waltham, MA, USA) at 37 °C in humidified 95% air and 5% CO2. The cells were periodically tested for Mycoplasma infection using MycoAlert kit (Lonza, Norwest, Australia), and only mycoplasma-free cells were employed in the experiments.
(§3) The effect of the compounds on the proliferation of human tumor cell lines was determined as previously described using the MTT reagent 3-[4,5-dimethylthiazol-2-yl]-2,5-diphenyltetrazolium bromide, MTT Thiazolyl Blue Tetrazolium Bromide, Sigma-Aldrich, St. Louis, MO, USA) dissolved in PBS at 5 mg/mL, according to the manufacturer’s instructions. The cells were incubated in 96-well plates (100 μL/well), in complete DMEM or RPMI 1640 medium (see above), at 37 °C and 5% CO2 atmosphere for 24 h to allow for cell attachment to the plate at the following concentrations: 30,000 cells/mL (U87MG, A172, J774, and HEK-293 cells) or 15,000 cells/mL (HeLa cells). Then, every compound was added (10 μL/well) to a final concentration of 10 μM. Untreated cells were used as negative controls. The antiproliferative activity of the compounds was measured 72 h after drug exposure using the MTT assay. The IC50 value (the drug concentration required to inhibit 50% of the cell growth in respect the untreated control) was determined for those compounds showing antiproliferative effects in the initial screening at 10 μM. For this purpose, the compounds were used at different concentrations ranging from 10^−10 to […]. Measurements were performed in triplicate and each experiment was repeated three times. The IC50 values were determined using Origin software (OriginLab, Washington, DC, USA).

HeLa cells = experiment: Cell cycle analysis (PI staining, flow cytometry); type: cell-based, human; conditions: 2 μM, 24-72 h
Procedure: To study the effects of the compounds on the cell cycle, cells were incubated for different times with the compounds and, thereafter, their DNA was stained using propidium iodide (PI) to allow for quantification by flow cytometry. […] The brominated ethyl BZTs (5b and 5f) were faster to show the subG0/G1 decrease, at 24 h, followed by an apparent stabilization of the G0/G1 population at 48 h, which abruptly fell at the 72 h time point.
HeLa cells (8 × 10^4 cells/mL) were seeded in 6-well plates (2 mL/well) and incubated in complete DMEM medium at 37 °C and 5% CO2 atmosphere for 24 h. Then, the medium was replaced with fresh complete DMEM in the presence or absence of the selected compounds (3ea, 5b, 5f, and frentizole 6e) at 2 μM. Untreated cells were used as negative controls. Cells were harvested 24, 48, or 72 h following treatment and fixed in ice-cold ethanol/PBS (7:3) overnight. The cells were then washed twice with PBS, suspended in PBS and incubated overnight in darkness with 0.2 mg/mL RNase A (Sigma-Aldrich, St. Louis, MO, USA), 50 μg/mL propidium iodide (Sigma-Aldrich, St. Louis, MO, USA), and Triton 10× at room temperature. A BD Accuri™ C6 Plus Flow Cytometer (BD Bioscience, Madrid, Spain) was used to analyze samples, and BD Accuri™ C6 Software (version 1.0.264.21) was used for data analysis.

[3] = system: A172 (human glioblastoma); experiment: MTT antiproliferative assay, A-172; type: cell-based; conditions: 72 h after drug treatment, threshold 10 μM
Procedure: as §1, §2, §3

[4] = system: microtubule network of HeLa cells; experiment: Immunofluorescence confocal microscopy of cellular microtubules; type: cell-based, human; conditions: 2 μM, 24 h
Procedure: Therefore, we studied the effect of the compounds after 24 h of treatment on the microtubule network of HeLa cells by immunofluorescence confocal microscopy (Figure 5) through α-tubulin and nuclei labeling. […] These morphological effects are typical of tubulin inhibitors. Again, the effects are more pronounced for 5b than for 3ea, frentizole, and 5f.
HeLa cells (8 × 10^4 cells/mL) were seeded on 0.01% poly-L-lysine precoated square glass coverslips (22 mm^2), deposited on 6-well plates (1 coverslip/well), and incubated in complete DMEM medium at 37 °C and 5% CO2 atmosphere. After 24 h the culture medium was replaced by fresh complete DMEM, and the cells were incubated in the presence of 2 μM or absence of the selected compounds (3ea, 5b, 5f, and frentizole 6e) for 24 h. Untreated cells were used as negative controls. Then the medium was removed, and the coverslips were washed three times with PBS, fixed in 4% formaldehyde in PBS for 10 min, permeabilized with 0.5% Triton X-100 (Sigma-Aldrich, St. Louis, MO, USA) in PBS for 90 s at 4 °C, blocked with 10% BSA in PBS for 30 min and washed four times with PBS. Then, the coverslips were incubated for 1 h with anti-α-tubulin mouse monoclonal antibody (Sigma-Aldrich, St. Louis, MO, USA, 1:200 in PBS containing 3% BSA). After four washes with PBS, the coverslips were incubated with fluorescent secondary antibody Alexa Fluor 488 goat anti-mouse IgG (Molecular Probes, Invitrogen, Eugenen, OR, USA, 1:400 in PBS containing 1% BSA) for 1.5 h in darkness. After four washes with PBS, a droplet of ProLong™ Gold Antifade Mountant containing DAPI (ThermoFisher, Waltham, MA, USA) was added for cell nuclei staining. The samples were analyzed via confocal microscopy using a LEICA SP5 microscope DMI-6000V model coupled to a LEICA LAS AF 4.0 software computer.

[5] = system: HeLa (cervix epithelioid carcinoma cells); experiment: MTT antiproliferative assay, HeLa; type: cell-based, human; conditions: for pIC50: Homo sapiens, HeLa
Procedure: as §1, §2, §3

[6] = parameters: method as in PMID 24858403; conditions: cited from earlier work
[7] = system: nontumorigenic cell line HEK-293 (human embryonic kidney cells); experiment: MTT antiproliferative assay, HEK-293; type: cell-based; conditions: HEK293, 72 h after drug treatment, threshold 10 μM
Procedure: as §1, §2, §3

[8] = system: murine macrophage cell line J774; experiment: MTT antiproliferative assay, J774; type: cell-based; conditions: Mus musculus, 72 h after drug treatment, threshold 10 μM, read-out: IC50 J-774
Procedure: as §1, §3

[9] = system: Survival motor neuron protein; parameters: method as in SuperPred [40]; conditions: Table S2, CHEMBL1293232; ref SuperPred [40]; cited from earlier work
[10] = system: U87 MG (human glioblastoma); parameters: method as in PMID 37376146; conditions: cited from earlier work
Solubility (remark) = type: physicochemical
[11] = 72 h after drug treatment, threshold 10 μM

Structure (SMILES)	Min Activity (Assay type Potency) [1] [nm]	pIC50 [2]	effect on the cell cycle populations (in words) (HeLa cells; listed as Frentizole (6e))	effect on the cell cycle populations (in words) (HeLa cells; listed as frentizole)	pIC50 [3]	effect on the microtubule network (in words) [4]	activity against HeLa cells (in words) [5]	IC50 HeLa [5, 11]	pIC50 [5, 11]	blood–brain barrier crossing [6]	pIC50 [7]	pIC50 [8]	Min Activity (Assay type Potency) [9] [nm]	effect on the cell cycle populations (in words) (HeLa cells)	in vitro IC50 against U87MG [10]	solubility (in words) (Solubility (remark))
COc1ccc2nc(NC(=O)Nc3ccccc3)sc2c1 [Compound 6e, 1-(6-Methoxybenzo[d]thiazol-2-yl)-3-phenylurea, reference compound]	707.9	5.13	progressive accumulation of cells in the G2/M population	no increase in the subG0/G1 population was observed	< 5.00	severe microtubule network disruption	significant activity	low micromolar range	6.00	able to cross the blood–brain barrier	5.16	< 5.00	891.3			
CCNC(=O)Nc1nc2c(Br)cc(C)cc2s1 [Compound 5b, 1-(4-Bromo-6-methylbenzo[d]thiazol-2-yl)-3-ethylurea]		< 5.00			< 5.00	severe microtubule network disruption	significant activity		6.31		< 5.00	< 5.00		arrest at G2/M in the 24 to 48 h period		
Cn1nnc2c(C(N)=O)ncn2c1=O [temozolomide]															millimolar range	
CCNC(=O)Nc1nc2c(Br)cc(OC)cc2s1 [Compound 5f, 1-(4-Bromo-6-methoxybenzo[d]thiazol-2-yl)-3-ethylurea]		< 5.00			< 5.00	severe microtubule network disruption	significant activity		6.15		< 5.00	< 5.00		increase in the subG0/G1 population progressively occurs at the 48 h to 72 h timepoints		
COc1ccc2nc(N(C)C(=O)c3ccccc3)sc2c1 [Compound 3ea, N-(6-methoxybenzo[d]thiazol-2-yl)-N-methylbenzamide]		< 5.00			< 5.00	severe microtubule network disruption	significant activity		6.13		< 5.00	< 5.00		weakest effect on the cell populations		
CCNC(=O)Nc1nc2c(Br)c(C)c(C)cc2s1 [Compound 5d, 1-(4-Bromo-5,6-dimethylbenzo[d]thiazol-2-yl)-3-ethylurea]		< 5.00			< 5.00		significant activity		5.91		< 5.00	< 5.00				very limited solubility
